Results from the supplement of paper PMC8967900.

Assays:
Experiment in all cases: selective drug sensitivity score (sDSS, relative to normal bone marrow) (sDSS (score)); higher = more potent and effective on the cell line relative to normal bone marrow cells
Settings in all cases: 72 h
COG-LL-355h = tested on: COG-LL-355h
MOLT-16 = tested on: MOLT-16
PEER = tested on: PEER
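Note: ALL cell lines in 384-well plates, five doses spanning 10,000-fold, each plate scaled between vehicle and 100 µmol/L benzalkonium chloride controls, sDSS an adapted area-under-curve metric.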

Row | Structure (SMILES) | selective drug sensitivity score (COG-LL-355h) | selective drug sensitivity score (MOLT-16) | selective drug sensitivity score (PEER)
1 | CN1CCN(CCOc2cc(OC3CCOCC3)c3c(Nc4c(Cl)ccc5c4OCO5)ncnc3c2)CC1 [Saracatinib] (top concentration 10000 nM) | 0.48 | 2.38 | 7.38
2 | Cc1cc(Nc2cc(N3CCN(C)CC3)nc(Sc3ccc(NC(=O)C4CC4)cc3)n2)n[nH]1 [Tozasertib] (top concentration 10000 nM) | 2.96 | 22.7 | 22.6
3 | Cn1cc(C2=C(c3cn(C4CCN(Cc5ccccn5)CC4)c4ccccc34)C(=O)NC2=O)c2ccccc21 [Enzastaurin] (top concentration 10000 nM) | 6.76 | 4.66 | 6.66
4 | C[C@@H]1CN(Cc2ccc(F)cc2)[C@@H](C)CN1C(=O)c1cc2c(C(=O)C(=O)N(C)C)cn(C)c2cc1Cl [Talmapimod] (top concentration 10000 nM) | 0 | 0 | 0
5 | C[C@H]1C[C@@H]2[C@H]([C@@H](O)C[C@@]3(C)[C@H]2CC[C@]3(O)C(=O)CO)[C@@]2(C)C=CC(=O)C=C12 [Methylprednisolone] (top concentration 10000 nM) | 22.9 | 7.9 | -1.5
6 | CN(C)CCCOc1ccc(-c2ccc3ncc4c(c3c2)n(C2CCOCC2)c(=O)n4C)cn1 [AZD0156] (top concentration 1000 nM) | 0.74 | 0.54 | -0.06
7 | Cc1sc2c(c1C)C(c1ccc(Cl)cc1)=N[C@@H](CC(=O)Nc1ccc(OCCOCCOCCOCCNc3cccc4c3C(=O)N(C3CCC(=O)NC3=O)C4=O)cc1)c1nnc(C)n1-2 (stereo partly drawn) [ARV-825] (top concentration 300 nM) | 10.2 | 1.44 | -0.46
8 | c1cc(CN2CCCNCCNCCCNCC2)ccc1CN1CCCNCCNCCCNCC1 [Plerixafor] (top concentration 10000 nM) | 0 | 0 | 0
9 | CC(C)(C)NC(=O)[C@H]1CC[C@H]2[C@@H]3CC[C@H]4NC(=O)C=C[C@]4(C)[C@H]3CC[C@]12C [Finasteride] (top concentration 10000 nM) | -0.52 | -0.52 | -0.52
10 | CC1=C(/C=C/C(C)=C/C=C/C(C)=C/C(=O)O)C(C)(C)CCC1 [Tretinoin] (top concentration 10000 nM) | -1 | -2.4 | -2.4
11 | Cn1cc(-c2cnn3c(N)c(Br)c([C@@H]4CCCNC4)nc23)cn1 [MK-8776] (top concentration 2500 nM) | 0.54 | 1.44 | -0.26
12 | CC[C@]1(O)C[C@H]2CN(CCc3c([nH]c4ccccc34)[C@@](C(=O)OC)(c3cc4c(cc3OC)N(C=O)[C@H]3[C@@](O)(C(=O)OC)[C@H](OC(C)=O)[C@]5(CC)C=CCN6CC[C@]43[C@@H]65)C2)C1 [Vincristine] (top concentration 1000 nM) | 1.22 | 9.52 | 6.82
13 | CN(C)CC#Cc1ccc(OCCCc2sc(N3CCc4cccc(C(=O)Nc5nc6ccccc6s5)c4C3)nc2C(=O)O)c(F)c1 (top concentration 10000 nM) | 27.2 | 0.56 | 31.8
14 | CCc1cncnc1N1CCN(Cc2nc3cc(C(F)(F)F)ccc3[nH]2)CC1 (top concentration 10000 nM) | -0.14 | 4.86 | 4.56
15 | CC[C@H](C)C(=O)O[C@H]1C[C@@H](C)C=C2C=C[C@H](C)[C@H](CC[C@@H]3C[C@@H](O)CC(=O)O3)[C@H]21 [Lovastatin] (top concentration 10000 nM) | 0 | 1.7 | 1.2
16 | CNc1nc(Nc2cn(C(C)(C)C#N)nc2C)ncc1C(F)(F)F [GNE-0877] (top concentration 1000 nM) | 0 | 0 | 0
